These results are taken from patent publication US20050289668A1, “Plants with increased levels of one or more amino acids” (priority 2003, published 2005).

Format in all cases: biochemical
Assay [1] addresses T1, E. coli threonine deaminase (ilvA) variant L447F (ilvA219), SEQ ID NO: 3 (Escherichia coli, UniProt P04968, A120R/A140R/G195C/G334V/L447F/V121L).
T1 construct: made in house; host or cells: E. coli (crude extract)
T1 sequence (P04968 1-514 A120R/V121L/A140R/G195C/G334V/L447F): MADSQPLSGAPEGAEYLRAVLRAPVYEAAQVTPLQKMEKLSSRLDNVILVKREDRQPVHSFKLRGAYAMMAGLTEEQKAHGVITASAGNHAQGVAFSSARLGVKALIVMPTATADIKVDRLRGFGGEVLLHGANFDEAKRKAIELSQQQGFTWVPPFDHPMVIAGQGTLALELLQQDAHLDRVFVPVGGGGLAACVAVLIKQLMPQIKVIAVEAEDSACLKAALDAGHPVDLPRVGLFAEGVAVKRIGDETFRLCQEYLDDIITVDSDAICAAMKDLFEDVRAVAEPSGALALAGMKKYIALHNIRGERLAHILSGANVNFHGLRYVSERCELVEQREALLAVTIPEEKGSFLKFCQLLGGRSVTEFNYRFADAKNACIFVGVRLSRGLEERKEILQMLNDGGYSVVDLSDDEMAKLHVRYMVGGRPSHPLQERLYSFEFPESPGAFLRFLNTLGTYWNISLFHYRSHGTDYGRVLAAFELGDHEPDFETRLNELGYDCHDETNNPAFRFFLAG
In words: Threonine deaminase steady state kinetics, L447F (ilvA219).

Assay [2] addresses T2, E. coli threonine deaminase (ilvA) variant L481F (ilvA466), SEQ ID NO: 4 (Escherichia coli, UniProt P04968, A120R/A140R/G195C/G334V/L481F/V121L).
T2 construct: made in house; host or cells: E. coli (pSE380, crude extract)
The experiment in a line: biochemical. As for the experimental part:
(§1) Before conducting further transformation experiments using the isolated ilvA alleles in transgenic plants, each allele was over-expressed in E. coli to determine its kinetic parameters. Kinetics data on threonine deaminases containing various mutations, and a comparison to data available for threonine deaminases from Arabidopsis, are provided in Table 4. The E. coli ilvA481 variants were subcloned into pSE380 (Invitrogen, Carlsbad, Calif.) and expression was induced with 0.2 mM IPTG at 37° C. for 3 hours. Expression of the E. coli alleles was high and fairly consistent as visualized by SDS-PAGE.
(§2) The effects of amino acid substitutions at Leu481 in ilvA were assessed by steady state kinetic analysis in the presence and absence of L-isoleucine. Threonine deaminase polypeptides for use in in vitro kinetics studies were extracted from E. coli cells in assay buffer containing 50 mM potassium phosphate (pH7.5), 1 mM dithiothreitol (DTT), and 0.5 mM ethylenediamine-tetraacetate. A continuous assay method was employed to monitor the formation of α-ketobutyrate directly at 230 nm (ε230 (pH7.5)=540 M^−1cm^−1 whereas threonine absorption was negligible (˜1%)). […] The kinetic parameters were determined by fitting the data points to the equations using GraFit 4.0 software (Erithacus Software, Surrey, UK). […]

Assay [3] has as its target T3, E. coli threonine deaminase (ilvA), wild type, SEQ ID NO: 2 (Escherichia coli, UniProt P04968, A120R/A140R/G195C/G334V/V121L).
T3 construct: made in house; host or cells: E. coli (crude extract)
In words: Threonine deaminase steady state kinetics, E. coli wild type. As for the experimental part:
as §1, §2

Assay [4] has as its target T4, E. coli threonine deaminase (ilvA) variant L481P, SEQ ID NO: 6 (Escherichia coli, UniProt P04968, A120R/A140R/G195C/G334V/L481P/V121L).
T4 construct: made in house; host or cells: E. coli (pSE380, crude extract)
The experiment in a line: Threonine deaminase steady state kinetics, L481P. As for the experimental part:
as §1, §2

Assay [5] deals with T5, E. coli threonine deaminase (ilvA) variant L481I, SEQ ID NO: 10 (Escherichia coli, UniProt P04968, A120R/A140R/G195C/G334V/L481I/V121L).
T5 construct: made in house; host or cells: E. coli (pSE380, crude extract)
T5 sequence (P04968 1-514 A120R/V121L/A140R/G195C/G334V/L481I): T1 sequence (P04968 1-514 A120R/V121L/A140R/G195C/G334V/L447F) with F447L, L481I
The experiment in a line: Threonine deaminase steady state kinetics, L481I. As for the experimental part: as §1
The effects of amino acid substitutions at Leu481 in ilvA were assessed by steady state kinetic analysis in the presence and absence of L-isoleucine. Threonine deaminase polypeptides for use in in vitro kinetics studies were extracted from E. coli cells in assay buffer containing 50 mM potassium phosphate (pH7.5), 1 mM dithiothreitol (DTT), and 0.5 mM ethylenediamine-tetraacetate. A continuous assay method was employed to monitor the formation of α-ketobutyrate directly at 230 nm (ε230 (pH7.5)=540 M^−1cm^−1 whereas threonine absorption was negligible (˜1%)). The assay was initiated by adding 20 μl of crude extract diluted 1:20 v/v to the assay vessel containing L-threonine (between 2.5 mM and 50 mM) in a final volume of 1 mL. For L-isoleucine inhibition, L-isoleucine was added between 0 mM and 20 mM. The kinetic parameters were determined by fitting the data points to the equations using GraFit 4.0 software (Erithacus Software, Surrey, UK). For comparison, the kcat values of L481 alleles were normalized to the kcat value for the wild type IlvA enzyme. Enzymes represented in FIG. 7 are: wild type E. coli threonine deaminase (circles), L481Y TD enzyme (diamonds), L481F TD enzyme (triangles), and the L481T TD enzyme (squares). Table 4 also summarizes the kinetic parameters of the variant threonine deaminase enzymes produced by the various E. coli ilvA alleles.

The target in assay [6] is T6, E. coli threonine deaminase (ilvA) variant L481E, SEQ ID NO: 7 (Escherichia coli, UniProt P04968, A120R/A140R/G195C/G334V/L481E/V121L).
T6 construct: made in house; host or cells: E. coli (pSE380, crude extract)
T6 sequence (P04968 whole entry A120R/V121L/A140R/G195C/G334V/L481E): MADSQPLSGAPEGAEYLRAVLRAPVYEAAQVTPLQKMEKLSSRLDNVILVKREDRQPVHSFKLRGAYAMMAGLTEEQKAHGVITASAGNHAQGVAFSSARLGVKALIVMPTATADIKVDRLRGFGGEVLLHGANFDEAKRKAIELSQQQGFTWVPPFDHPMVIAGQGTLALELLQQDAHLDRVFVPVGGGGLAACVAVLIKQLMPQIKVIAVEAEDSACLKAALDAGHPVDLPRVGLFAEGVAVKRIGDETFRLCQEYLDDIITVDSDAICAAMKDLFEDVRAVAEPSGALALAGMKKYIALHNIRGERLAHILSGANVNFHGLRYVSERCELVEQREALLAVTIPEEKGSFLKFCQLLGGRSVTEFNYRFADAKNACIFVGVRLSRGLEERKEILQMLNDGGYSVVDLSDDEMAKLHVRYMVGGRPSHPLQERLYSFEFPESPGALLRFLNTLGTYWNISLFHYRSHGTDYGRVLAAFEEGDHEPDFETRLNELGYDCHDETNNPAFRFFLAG
The experiment in a line: Threonine deaminase steady state kinetics, L481E. As for the experimental part: as §1, §2

In assay [7] the target is T7, E. coli threonine deaminase (ilvA) variant L481T, SEQ ID NO: 8 (Escherichia coli, UniProt P04968, A120R/A140R/G195C/G334V/L481T/V121L).
T7 construct: made in house; host or cells: E. coli (pSE380, crude extract)
T7 sequence (P04968 whole entry A120R/V121L/A140R/G195C/G334V/L481T): as the sequence (P04968 whole entry A120R/V121L/A140R/G195C/G334V/L481E) above, with E481T counted along it
In words: Threonine deaminase steady state kinetics, L481T. As for the experimental part: as §1, §2

What is called IC50 is the concentration at which inhibition is half-maximal. Read a low IC50 as greater potency. Usually Km stands for the concentration of substrate that gives half-maximal velocity.

Where a chain is given by its changes, count along the chain named. A value given as a limit tells only on which side of the number the result lay.

T3 sequence (P04968 whole entry A120R/V121L/A140R/G195C/G334V): as the sequence (P04968 whole entry A120R/V121L/A140R/G195C/G334V/L481E) above, with E481L counted along it
T2 sequence (P04968 whole entry A120R/V121L/A140R/G195C/G334V/L481F): as the sequence (P04968 whole entry A120R/V121L/A140R/G195C/G334V/L481E) above, with E481F counted along it
T4 sequence (P04968 whole entry A120R/V121L/A140R/G195C/G334V/L481P): as the sequence (P04968 whole entry A120R/V121L/A140R/G195C/G334V/L481E) above, with E481P counted along it

Regarding `CC[C@H](C)[C@H](N)C(=O)O` [L-isoleucine], the IC50 in assay [1] was more than 20000 µM; in assay [2] it was 800 µM; in assay [3] it was 56 µM; in assay [4] it was 650 µM; in assay [5], 134 µM; in assay [6], 445 µM. The compound also displayed a half-maximal inhibitory concentration (IC50) in assay [7] of 449 µM.

As to `C[C@@H](O)[C@H](N)C(=O)O` [L-threonine], the “Hill coefficient (n), substrate binding” value in assay [1] (L447F, pMON25859, negative cooperativity) is given as 0.5; in assay [5] (L481I, pMON25861, positive cooperativity), 1.6. Further, the Km was found to be 1.7 mM in assay [1] (read-out: Km^Thr, L447F, pMON25859, pH 7.5, L-threonine 2.5-50 mM); 4 mM in assay [2] (read-out: Km^Thr, L481F, pMON25857, pH 7.5, L-threonine 2.5-50 mM); 8.3 mM in assay [3] (read-out: Km^Thr, E. coli wt, pMON25858, pH 7.5, L-threonine 2.5-50 mM); 8.8 mM in assay [4] (read-out: Km^Thr, L481P, pMON25864, pH 7.5, L-threonine 2.5-50 mM); 7.6 mM in assay [5] (read-out: Km^Thr, L481I, pMON25861, pH 7.5, L-threonine 2.5-50 mM); 3.9 mM in assay [6] (read-out: Km^Thr, L481E, pMON25860, pH 7.5, L-threonine 2.5-50 mM). The Km in assay [7] (read-out: Km^Thr, L481T, pMON25866, pH 7.5, L-threonine 2.5-50 mM) was 3.4 mM.
